Patent publication US20160264536A1, “HETEROCYCLIC COMPOUND” (Takeda Pharmaceutical Company Limited, priority 2013, published 2016)

What follows are compounds tested against T1, human PDE2A3 enzyme (Homo sapiens, UniProt O00408) (assay: PDE enzyme inhibitory assay (SPA, [3H]cGMP substrate)). Settings: compound 1 μM, substrate [3H]cGMP 77 nM, read-out: inhibitory rate (%) (1 μM).
T1 construct: Human PDE2A3 full-length gene was transduced into Sf9; His-tag; made in house; host or cells: Sf9 insect cells
T1 sequence (O00408 whole entry): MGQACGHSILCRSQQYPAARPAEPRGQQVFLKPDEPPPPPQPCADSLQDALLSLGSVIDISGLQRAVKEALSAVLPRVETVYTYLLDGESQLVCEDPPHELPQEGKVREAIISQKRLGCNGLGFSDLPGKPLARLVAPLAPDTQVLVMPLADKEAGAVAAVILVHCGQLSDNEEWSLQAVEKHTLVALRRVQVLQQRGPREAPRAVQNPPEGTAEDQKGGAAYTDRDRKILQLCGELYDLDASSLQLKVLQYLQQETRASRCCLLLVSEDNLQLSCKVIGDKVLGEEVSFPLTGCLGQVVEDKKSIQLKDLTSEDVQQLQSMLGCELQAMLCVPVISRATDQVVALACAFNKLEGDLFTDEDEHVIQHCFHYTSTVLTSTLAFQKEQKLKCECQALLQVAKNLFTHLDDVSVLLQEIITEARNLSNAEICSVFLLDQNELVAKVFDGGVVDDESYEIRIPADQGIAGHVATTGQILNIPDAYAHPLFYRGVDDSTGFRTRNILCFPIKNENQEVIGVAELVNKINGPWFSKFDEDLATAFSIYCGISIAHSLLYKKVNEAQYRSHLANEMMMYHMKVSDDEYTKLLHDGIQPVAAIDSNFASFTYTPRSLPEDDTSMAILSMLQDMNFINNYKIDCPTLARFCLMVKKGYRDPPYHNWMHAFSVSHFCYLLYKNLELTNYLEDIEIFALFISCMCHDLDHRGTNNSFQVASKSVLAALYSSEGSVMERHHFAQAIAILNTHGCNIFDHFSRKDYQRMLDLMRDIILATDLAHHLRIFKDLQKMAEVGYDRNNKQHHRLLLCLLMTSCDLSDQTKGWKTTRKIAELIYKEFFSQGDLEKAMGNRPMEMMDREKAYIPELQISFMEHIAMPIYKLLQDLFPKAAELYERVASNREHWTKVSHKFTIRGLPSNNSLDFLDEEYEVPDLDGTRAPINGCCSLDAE
Assay type: biochemical
Protocol: PDE Enzyme Inhibitory Assay
Human PDE2A3 full-length gene was transduced into Sf9, and human PDE2A3 enzyme was purified by His-tag affinity column and gel filtration. The enzyme was stored at −70° C. until use. PDE activity was measured by using a SPA (Scintillation Proximity Assay) (GE Healthcare). To evaluate the inhibitory activity of the compound, 10 μl of serial diluted compounds were reacted with 20 μl of PDE enzyme in assay buffer (50 mM HEPES-NaOH, 8.3 mM MgCl2, 1.7 mM EGTA, 0.1% BSA (pH 7.4)) for 30 min at room temperature. Final concentration of DMSO in the reaction solution was 1%. Compounds were tested in duplicate in 96-well half-area plates (Corning) or 384-well OptiPlate (PerkinElmer). To start the reaction, 10 μl of substrate [^3H]cGMP (final concentration 77 nM, PerkinElmer) was added to a total volume of 40 μl. After reaction for 60 min at room temperature, 20 μl of 20 mg/mL yttrium SPA beads containing zinc sulfate was added to terminate the reaction. After being settled for further 1 hour, the assay plates were counted in a scintillation counter (PerkinElmer) to allow calculation of inhibition rate. Inhibition rate was calculated on the basis of 0% control wells with enzyme and DMSO, and 100% control wells without enzyme.

inhibition at 1 µM [%]	Structure (SMILES)
94	COC[C@@H](NC(=O)c1cc(=O)[nH]c(-c2ncc(C3CC3)cc2F)n1)c1ccc(OC(F)(F)F)c(F)c1 [Example 185, 2-(5-cyclopropyl-3-fluoropyridin-2-yl)-N-((1S)-1-(3-fluoro-4-(trifluoro-methoxy)phenyl)-2-methoxyethyl)-6-oxo-1,6-dihydropyrimidine-4-carboxamide]
99	COC[C@@H](NC(=O)c1cc(=O)[nH]c(-c2ncc(C3CC3)cc2OC)n1)c1ccc(OC(F)(F)F)c(F)c1 [Example 189, 2-(5-cyclopropyl-3-methoxypyridin-2-yl)-N-((1S)-1-(3-fluoro-4-(trifluoro-methoxy)phenyl)-2-methoxyethyl)-6-oxo-1,6-dihydropyrimidine-4-carboxamide]
94	CC#Cc1nc(C(=O)N[C@H](COC)c2ccc(OC(F)(F)F)c(F)c2)cc(=O)[nH]1 [Example 111, N-((1S)-1-(3-fluoro-4-(trifluoromethoxy)phenyl)-2-methoxyethyl)-6-oxo-2-(prop-1-yn-1-yl)-1,6-dihydropyrimidine-4-carboxamide]
103	COC[C@@H](NC(=O)c1cc(=O)[nH]c(C2=CCC(OC)C2)n1)c1ccc(OC(F)(F)F)c(F)c1 (stereo partly drawn) [Example 171, N-((1S)-1-(3-fluoro-4-(trifluoromethoxy)phenyl)-2-methoxyethyl)-2-(4-methoxycyclopent-1-en-1-yl)-6-oxo-1,6-dihydropyrimidine-4-carboxamide]
102	COC[C@@H](NC(=O)c1cc(=O)[nH]c(-c2ccoc2)n1)c1ccc(OC(F)(F)F)c(F)c1 [Example 122, N-((1S)-1-(3-fluoro-4-(trifluoromethoxy)phenyl)-2-methoxyethyl)-2-(3-furyl)-6-oxo-1,6-dihydropyrimidine-4-carboxamide]
98	COC[C@@H](NC(=O)c1cc(=O)[nH]c(N2CCCC2)n1)c1ccc(OC(F)(F)F)c(F)c1 [Example 61, N-((1S)-1-(3-fluoro-4-(trifluoromethoxy)phenyl)-2-methoxyethyl)-6-oxo-2-(pyrrolidin-1-yl)-1,6-dihydropyrimidine-4-carboxamide]
93	COC[C@@H](NC(=O)c1cc(=O)[nH]c(C2CC2)n1)c1ccc(OC(F)(F)F)c(F)c1 [Example 81, 2-cyclopropyl-N-((1S)-1-(3-fluoro-4-(trifluoromethoxy)phenyl)-2-methoxyethyl)-6-oxo-1,6-dihydropyrimidine-4-carboxamide]

The remaining lines, values behind:

Structure (SMILES)	inhibition at 1 µM [%]
COCC(NC(=O)c1cc(=O)[nH]c(C2=CCCC2)n1)c1ccc(-n2cccn2)c(F)c1 (stereo not drawn) [Example 129, 2-(cyclopent-1-en-1-yl)-N-(1-(3-fluoro-4-(1H-pyrazol-1-yl)phenyl)-2-methoxyethyl)-6-oxo-1,6-dihydropyrimidine-4-carboxamide]	98
COC[C@@H](NC(=O)c1cc(=O)[nH]c(N2CC[C@H](OC(C)C)C2)n1)c1ccc(OC(F)(F)F)cc1 [Example 67, 2-((3S)-3-isopropoxypyrrolidin-1-yl)-N-((1S)-2-methoxy-1-(4-(trifluoromethoxy)phenyl)ethyl)-6-oxo-1,6-dihydropyrimidine-4-carboxamide]	100
COC[C@@H](NC(=O)c1cc(=O)[nH]c(-c2ncc(OC)cc2OC)n1)c1ccc(OC(F)(F)F)c(F)c1 [Example 152, 2-(3,5-dimethoxypyridin-2-yl)-N-((1S)-1-(3-fluoro-4-(trifluoromethoxy)phenyl)-2-methoxyethyl)-6-oxo-1,6-dihydropyrimidine-4-carboxamide]	96
COC[C@@H](NC(=O)c1cc(=O)[nH]c(N2CC(OC)C2)n1)c1ccc(OC(F)(F)F)cc1 [Example 55, 2-(3-methoxyazetidin-1-yl)-N-((1S)-2-methoxy-1-(4-(trifluoromethoxy)phenyl)ethyl)-6-oxo-1,6-dihydropyrimidine-4-carboxamide]	98
COCC(NC(=O)c1cc(=O)[nH]c(-c2ccccn2)n1)c1ccc(-n2cccc2)c(F)c1 (stereo not drawn) [Example 116, N-(1-(3-fluoro-4-(1H-pyrrol-1-yl)phenyl)-2-methoxyethyl)-6-oxo-2-(pyridin-2-yl)-1,6-dihydropyrimidine-4-carboxamide]	99
CC(C)(C)c1nc(C(=O)N[C@@H](c2ccc(OC(F)(F)F)c(F)c2)C(C)(C)O)cc(=O)[nH]1 [Example 95, 2-tert-butyl-N-(1-(3-fluoro-4-(trifluoromethoxy)phenyl)-2-hydroxy-2-methylpropyl)-6-oxo-1,6-dihydropyrimidine-4-carboxamide]	104
CCOc1cnc(-c2nc(C(=O)N[C@H](COC)c3ccc(OC(F)(F)F)c(F)c3)cc(=O)[nH]2)c(OCC)c1 [Example 187, 2-(3,5-diethoxypyridin-2-yl)-N-((1S)-1-(3-fluoro-4-(trifluoromethoxy)phenyl)-2-methoxyethyl)-6-oxo-1,6-dihydropyrimidine-4-carboxamide]	105
COC[C@@H](NC(=O)c1cc(=O)[nH]c(C2=CCCC2)n1)c1ccc(OC(F)(F)F)cc1 [Example 115, 2-(cyclopent-1-en-1-yl)-N-((1S)-2-methoxy-1-(4-(trifluoromethoxy)phenyl)ethyl)-6-oxo-1,6-dihydropyrimidine-4-carboxamide]	100
COC[C@@H](NC(=O)c1cc(=O)[nH]c(N2CCCC2)n1)c1ccc(OC(F)(F)F)cc1 [Example 52, N-((1S)-2-methoxy-1-(4-(trifluoromethoxy)phenyl)ethyl)-6-oxo-2-(pyrrolidin-1-yl)-1,6-dihydropyrimidine-4-carboxamide]	102
CC(C)(O)[C@@H](NC(=O)c1cc(=O)[nH]c(-c2ccccn2)n1)c1ccc(OC(F)(F)F)c(F)c1 [Example 102, N-((1S)-1-(3-fluoro-4-(trifluoromethoxy)phenyl)-2-hydroxy-2-methylpropyl)-6-oxo-2-(pyridin-2-yl)-1,6-dihydropyrimidine-4-carboxamide]	102
COC[C@@H](NC(=O)c1cc(=O)[nH]c(-c2ncc(OC)cc2Cl)n1)c1ccc(OC(F)(F)F)c(F)c1 [Example 184, 2-(3-chloro-5-methoxypyridin-2-yl)-N-((1S)-1-(3-fluoro-4-(trifluoromethoxy)phenyl)-2-methoxyethyl)-6-oxo-1,6-dihydropyrimidine-4-carboxamide]	95
COC[C@@H](NC(=O)c1cc(=O)[nH]c(-c2ccc(OC)cn2)n1)c1ccc(OC(F)(F)F)c(F)c1 [Example 105, N-((1S)-1-(3-fluoro-4-(trifluoromethoxy)phenyl)-2-methoxyethyl)-2-(5-methoxypyridin-2-yl)-6-oxo-1,6-dihydropyrimidine-4-carboxamide]	104
CC(C)(O)[C@@H](NC(=O)c1cc(=O)[nH]c(C2=CCCC2)n1)c1ccc(OC(F)(F)F)c(F)c1 [Example 114, 2-(cyclopent-1-en-1-yl)-N-((1S)-1-(3-fluoro-4-(trifluoromethoxy)phenyl)-2-hydroxy-2-methylpropyl)-6-oxo-1,6-dihydropyrimidine-4-carboxamide]	104
COC[C@@H](NC(=O)c1cc(=O)[nH]c(-c2ncc(OC)cc2F)n1)c1ccc(OC(F)(F)F)c(F)c1 [Example 178, 2-(3-fluoro-5-methoxypyridin-2-yl)-N-((1S)-1-(3-fluoro-4-(trifluoromethoxy)phenyl)-2-methoxyethyl)-6-oxo-1,6-dihydropyrimidine-4-carboxamide]	99
